Reference: patent US8283370B2, “Imidazolidinedione derivatives as antimalarial agents, preparation thereof, and methods of use” (The United States of America as Represented by the …, priority 2008, dated 2012)
“And” between values parts separate entries of the source, which are not always exact repeats. Identical values can stand only once.

Legend:
Assay type in all cases: in vivo
[1] = test system: P. cynomolgi liver stage hypnozoites; assay: Radical cure test in relapsed Rhesus monkeys
Description: Monkeys were treated with chloroquine (10 mg/kg/day) by oral for 7 consecutive days and the test compounds by IM for 3 consecutive days after the parasitemia level reached 5,000 parasites/mm^3. Chloroquine (CQ) at 10 mg/kg/day×7 days eliminates the blood stage parasites, but not the liver stage hypnozoites. Compounds with antihypnozoite activity will delay the relapse or radically cure the infection. To evaluate the radical curative properties, daily blood samples were followed for 21 days, 3 times per week for 4 weeks, and then 2 times weekly until 100 days after the last day of test compound administration. Parasite clearance should occur in all animals treated with chloroquine. Relapse is expected in the control group. Relapse in the treated group indicates failure of the test compounds. […] Relapses of the control monkeys were treated with chloroquine once daily for 7-days and observed for a second relapse. Relapse in experimental animals and the second relapse of the control monkeys were treated with the standard 7-day oral CQ (chloroquine) and primaquine (1.78 mg base/kg). After standard treatment, blood smears were monitored daily for 4 consecutive days of negative results and 2 times weekly for 2 weeks.

P. yoelii sporozoites = assay: Causal prophylactic activity, exoerythrocytic (EE) mouse model, P. yoelii sporozoites; conditions: for P. yoelli # Mice Protected/# Mice Used: 3 days treated; for Causal prophylactic protection in mice (comparison in words): Table 5, compared to control compound 3 or between P. yoelii and P. berghei
Description: (§1) New compounds were assessed for their causal prophylactic activity in two different exoerythrocytic (EE) mouse models using sporozoites of either P. berghei or P. yoelii. The procedures have been previously described (see, for example, Q. Zhang et al., J. Med. Chem. 48 (20): 6472-6481 (2005)). Briefly, each compound was ground with a mortar and pestle and suspended in hydroxyethylcellulose and Tween 80 for compounds to be administered PO and those given SC were suspended in peanut oil. Each compound was prepared at different dose levels. Compounds were administered either PO or SC to mice once a day for three consecutive days, to mice on the day before, 4 hours before, and the day after being inoculated intraperitoneally with P. yoelii sporozoites or P. berghei sporozoites intravenously. Whole body weights were taken on Day 0 and Day 6 then approximately twice a week for 31 days. A blood film was taken on Day 5 and then approximately twice a week for 31 days. Mice losing greater than about 20% of their body weight were sacrificed. A compound was considered active if only low levels of parasites were found (less than about 10%) in blood films taken on Day 5 or any biweekly for 31 days. Mice alive on Day 31 with no parasites found in any blood films were considered protected.

P. berghei sporozoites = assay: Causal prophylactic activity, exoerythrocytic (EE) mouse model, P. berghei sporozoites; conditions: 3 days treated
Description: as §1

P. cynomolgi sporozoites = assay: Causal prophylactic test in P. cynomolgi sporozoites challenged Rhesus monkeys; conditions: for Causal prophylactic activity in Rhesus test (in words): 30 mg/kg/day for 3 days by IM; for Patency (Days Post-innoculation): one value per monkey, 30 mg/kg 1 daily for 3 days, IM (days -1, 0, +1), 30 mg/kg
Description: Among the new compounds prepared, representative compounds 5e, 6c, 7a and 7c were assessed for causal prophylactic and radical cure activities in Rhesus monkeys. To protect the Rhesus monkeys, a test compound must pass a mouse toxicity test at 300 mg/kg/day for 3 consecutive days by SC administration, and mice must not lose more than 5% body weight within 30 days after receiving the test compound.
The causal prophylactic and radical curative antimalarial activity of the new derivatives 5e, 6c, 7a and 7c were assessed in a P. cynomolgi sporozoites challenged Rhesus monkey model. Detailed procedure of sporozoites harvest and drug tests have been described previously (J. Guan et al., Bioorg. Med. Chem. 23, 699-704 (2005); Q. Zhang et al., J. Med. Chem. 48 (20): 6472-6481 (2005)) Briefly, monkeys were randomized to control groups and experimental groups. A donor monkey was inoculated intravenously with 1.3 mL freshly-thawed frozen infected red blood cells (DA310). When the donor monkey developed gametocytemia, mosquito feedings were conducted on days 13 and 14 after inoculation. The donor monkey was treated with intramuscular chloroquine hydrochloride (CQ) 10 mg/kg, once a day after the second mosquito feeding and continued for 7 days. On day 0 (beginning of assay), each of the monkeys was inoculated intravenously with 1-ml inoculum of suspension containing about 1.0×10^6 (one million) P. cynomolgi sporozoites harvested from Anopheles dirus mosquitoes' salivary glands previously fed on the donor monkey (See, for example, Corcoran, K D, et al. (1993) Am. J. Trop. Med. Hyg. 49:473 477, and Shanks, G D, et al. (2001) Clinical Infectious Diseases 33:1968 1974). All monkeys received treatment on days −1, 0 and 1. The control monkeys received dimethylsulfoxide (DMSO) and the experimental animals received testing compound intramusculary. After the assay, all monkeys were given standard malarial treatment. Specifically, seven-day primaquine (1.78 mg/kg) and chloroquine (10 mg/kg) were administered to treat all monkeys.

[2] = one value per monkey, 30 mg/kg 1 daily for 3 days IM with CQ 10 mg/kg x7 po

Row | SMILES | P. yoelli # Mice Protected/# Mice Used (P. yoelii sporozoites; Dose/day 10 mg/kg) | P. yoelli # Mice Protected/# Mice Used (P. yoelii sporozoites; Dose/day 40 mg/kg) | P. yoelli # Mice Protected/# Mice Used (P. yoelii sporozoites; Dose/day 160 mg/kg) | P. berghei # Mice Protected/# Mice Used (P. berghei sporozoites; Dose/day 40 mg/kg) | P. berghei # Mice Protected/# Mice Used (P. berghei sporozoites; Dose/day 160 mg/kg) | Delayed relapse, Days Post-treatment [1, 2] | Causal prophylactic activity in Rhesus test (in words) (P. cynomolgi sporozoites) | Patency (Days Post-innoculation) (P. cynomolgi sporozoites) | other results
1 | CCN(CC)CCCC(C)Nc1ccnc2cc(Cl)ccc12 (centres unmarked) [CQ, chloroquine, reference compound] |  |  |  |  |  |  |  |  | Relapse, Days Post-treatment ([1]; one value per monkey, CQ 10 mg/kg x7 po alone (Drug 2 none)): 9 days
2 | CC(C)N1C(=O)C(=O)N=C1/N=C(\NC(=O)OC(C)(C)C)Nc1ccc(Cl)c(Cl)c1 [Compound 3, reference compound] | 3/5 | 2/5 | 4/5 | 2/10 | 4/10 |  |  |  | 
3 | CC(C)N1C(=O)C(=O)N=C1N=C(NOCc1ccccc1)Nc1ccc(Cl)c(Cl)c1 [Compound 5e] |  |  |  | 0/5 | 0/5 | 35 days and 33 days | about equal in causal prophylactic activity to 7c | 27 days and 29 days | 
4 | CC(C)NC(=NC1=NC(=O)C(=O)N1C(C)C)Nc1ccc(Cl)c(Cl)c1 [Compound 6c] |  |  |  | 0/5 | 1/5 | 66 days and 91 days | most potent causal prophylactic activity | 62 days and 94 days | Radical curative efficacy (in words) ([1]; test compound IM for 3 days with CQ po for 7 days): more active than 5e, 7a and 7c
5 | CC(C)N1C(=O)C(=O)N=C1N=C(NCC(C)(C)C)Nc1ccc(Cl)c(Cl)c1 [Compound 6e] | 5/5 | 5/5 | 5/5 | 0/5 | 1/5 |  |  |  | Causal prophylactic protection in mice (comparison in words) (P. yoelii sporozoites): enhanced protection
6 | CC(C)N1C(=O)C(=O)N=C1N=C(Nc1ccccc1)Nc1ccc(Cl)c(Cl)c1 [Compound 6f] | 5/5 | 5/5 | 5/5 | 0/5 | 0/5 |  |  |  | Causal prophylactic protection in mice (comparison in words) (P. yoelii sporozoites): enhanced protection
7 | CCC(CC)C(=O)NC(=NC1=NC(=O)C(=O)N1C(C)C)Nc1ccc(Cl)c(Cl)c1 [Compound 7a] |  |  |  |  |  | 16 days | weak causal prophylactic activity | 13 days and 17 days | Delayed relapse, days longer as compared with control animals ([1]; 30 mg/kg 1 daily for 3 days IM with CQ 10 mg/kg x7 po): 7 days; Results (radical cure, in words) ([1]; 30 mg/kg 1 daily for 3 days IM with CQ 10 mg/kg x7 po, no relapse after 100 days = radically cured): One out of two monkeys treated with 7a was cured and Cure
8 | CC(C)N1C(=O)C(=O)N=C1N=C(NC(=O)C(C)(C)C)Nc1ccc(Cl)c(Cl)c1 [Compound 7c] |  |  |  |  |  |  | superior protective activity than that of 7a | 21 days and 40 days | Delayed relapse, days longer as compared with control animals ([1]; 40 mg/kg 1 daily for 3 days IM with CQ 10 mg/kg x7 po): 20 days and 23 days; Delayed relapse, Days Post-treatment ([1]; one value per monkey, 40 mg/kg 1 daily for 3 days IM with CQ 10 mg/kg x7 po): 29 days and 32 days
